Source: patent publication US12570687B2, “Triterpenoid compounds, pharmaceutical compositions thereof, and their use for treating a nuclear receptor subfamily 4 group a member 1-mediated disease” (NUCMITO PHARMACEUTICALS COMPANY LIMITED, priority 2019, dated 2026)

Experiments:
[1] = test system: HeLa (ovarian cancer); assay: MTT antiproliferative assay, HeLa; type: cell-based; settings: Homo sapiens, 48 or 72 h, read-out: inhibition of cell growth, HELA
In short: (§1)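 Cells seeded at 2,000-5,000/well were treated with compound at 0.137 to 100 μM or a single 10 μM for 48 or 72 h at 37° C. MTT was added for a further 4 h, formazan dissolved in DMSO and absorbance read at 490 nm; viability was expressed relative to DMSO vehicle.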

[2] = molecular target: Nur77-LBD (Homo sapiens, UniProt P22736); assay: Surface plasmon resonance (SPR) binding to Nur77-LBD; settings: BIAcore T200, 25° C., 1:1 Langmuir binding mode, read-out: Kd when binding to the Nur77-LBD protein
Nur77-LBD, sequence (P22736 360-595 limits assumed, species assumed): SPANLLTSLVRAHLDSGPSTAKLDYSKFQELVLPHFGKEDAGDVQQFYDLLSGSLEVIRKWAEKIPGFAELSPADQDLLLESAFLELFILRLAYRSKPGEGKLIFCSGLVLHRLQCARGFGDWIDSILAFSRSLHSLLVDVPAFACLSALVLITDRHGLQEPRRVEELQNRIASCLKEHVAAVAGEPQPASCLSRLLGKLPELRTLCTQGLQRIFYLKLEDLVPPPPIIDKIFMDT
Description: A test compound was analyzed for its binding kinetics with Nur77-LBD at 25° C. on a BIAcore T200 machine with CM5 chips. PBSP was used for all measurements. For SPR measurements, Nur77-LBD proteins were purified. A blank channel was used as negative control. About 10,000 response units of Nur77-LBD were immobilized on the chips. When the data collection was finished in each cycle, the sensor surface was regenerated with glycine-HCl at pH 2.5. A serial of concentrations ranging from 0.15 to 5.0 μM of the test compound was used. Sensograms were fit globally with BIAcore T200 analysis using 1:1 Langmuir binding mode.

[3] = test system: SW620 (colon cancer); assay: MTT antiproliferative assay, SW620; type: cell-based; settings: Homo sapiens, SW-620, SW620, 10 μM, 48 or 72 h, read-out: inhibition of cell growth, SW620
In short: as §1

[4] = test system: A375 (malignant melanoma); assay: MTT antiproliferative assay, A375; type: cell-based; settings: Homo sapiens, A-375, A375, 10 μM, 48 or 72 h, read-out: inhibition of cell growth, A375
In short: as §1

[5] = test system: A431 (epidermoid carcinoma); assay: MTT antiproliferative assay, A431; type: cell-based; settings: Homo sapiens, A-431, A431, 10 μM, 48 or 72 h, read-out: inhibition of cell growth, A431
In short: as §1

[6] = test system: MDA-MB-231 (breast cancer); assay: MTT antiproliferative assay, MDA-MB-231; type: cell-based; settings: Homo sapiens, MDA-MB-231, 10 μM, 48 or 72 h, read-out: inhibition of cell growth, MDA-MB-231
In short: as §1

[7] = test system: A549 (lung adenocarcinoma); assay: MTT antiproliferative assay, A549; type: cell-based; settings: Homo sapiens, A549, 10 μM, 48 or 72 h, read-out: inhibition of cell growth, A549
In short: as §1

[8] = test system: HepG2 (liver cancer); assay: MTT antiproliferative assay, HepG2; type: cell-based; settings: Homo sapiens, HepG2, 10 μM, 48 or 72 h, read-out: inhibition of cell growth, HepG2
In short: as §1

| Kd [2] [nM] | Structure (SMILES) | inhibition at 10 µM [1] [%] | inhibition at 10 µM [3] [%] | inhibition at 10 µM [4] [%] | inhibition at 10 µM [5] [%] | inhibition at 10 µM [6] [%] | inhibition at 10 µM [7] [%] | inhibition at 10 µM [8] [%] |
| --- | --- | --- | --- | --- | --- | --- | --- | --- |
| 560 | CNC(=O)[C@]1(C)CC[C@]2(C)CC[C@]3(C)C4=CC=C5C(=CC(=O)C(=O)[C@@]5(C)OC)[C@]4(C)CC[C@@]3(C)[C@@H]2C1 [Compound A7, (2R,4aS,6aS,9S,12bR,14aS,14bR)-9-methoxy-N,2,4a,6a,9,12b,14a-heptamethyl-10,11-dioxo-1,2,3,4,4a,5,6,6a,9,10,11,12b,13,14,14a,14b-hexadecahydropicene-2-carboxamide] | ≥ 80 | 30 to 50 | 50 to 80 | 50 to 80 | ≥ 80 | 30 to 50 | 50 to 80 |
| 390 | CO[C@]1(C)C(=O)C(=O)C=C2C1=CC=C1[C@@]2(C)CC[C@@]2(C)[C@@H]3C[C@](C)(C(=O)O)CC[C@]3(C)CC[C@]12C [Compound A1, (2R,4aS,6aS,9S,12bR,14aS,14bR)-9-methoxy-2,4a,6a,9,12b,14a-hexamethyl-10,11-dioxo-1,2,3,4,4a,5,6,6a,9,10,11,12b,13,14,14a,14b-hexadecahydropicene-2-carboxylic acid] | ≥ 80 | 50 to 80 | 30 to 50 | 50 to 80 | 50 to 80 | 30 to 50 | 50 to 80 |
| 890 | CO[C@]1(C)C(=O)C(=O)C=C2C1=CC=C1[C@@]2(C)CC[C@@]2(C)[C@@H]3C[C@](C)(C(N)=O)CC[C@]3(C)CC[C@]12C [Compound A9, (2R,4aS,6aS,9S,12bR,14aS,14bR)-9-methoxy-2,4a,6a,9,12b,14a-hexamethyl-10,11-dioxo-1,2,3,4,4a,5,6,6a,9,10,11,12b,13,14,14a,14b-hexadecahydropicene-2-carboxamide] | ≥ 80 | 50 to 80 | 30 to 50 | 50 to 80 | ≥ 80 | 30 to 50 | 50 to 80 |
|  | COC1(C)C2=CC=C3[C@@](C)(CC[C@@]4(C)[C@@H]5C[C@](C)(C(=O)O)CC[C@]5(C)CC[C@]34C)C2=CC(=O)C1CC#N (stereo in doubt) [Compound A38, (2R,4aS,6aS,9S,12bR,14aS,14bR)-10-(cyanomethyl)-9-methoxy-2,4a,6a,9,12b,14a-hexamethyl-11-oxo-1,2,3,4,4a,5,6,6a,9,10,11,12b,13,14,14a,14b-hexadecahydropicene-2-carboxylic acid] | ≥ 80 | 50 to 80 | 30 to 50 | 30 to 50 | 30 to 50 | < 30 | < 30 |
|  | COC(=O)[C@]1(C)CC[C@]2(C)CC[C@]3(C)C4=CC=C5C(=CC(=O)/C(=C\C#N)C5(C)O)[C@]4(C)CC[C@@]3(C)[C@@H]2C1 (stereo partly drawn) [Compound A33, methyl (2R,4aS,6aS,10Z,12bR,14aS,14bR)-10-(cyanomethylidene)-9-hydroxy-2,4a,6a,9,12b,14a-hexamethyl-11-oxo-1,2,3,4,4a,5,6,6a,9,10,11,12b,13,14,14a,14b-hexadecahydropicene-2-carboxylate] | ≥ 80 | ≥ 80 | 50 to 80 | 50 to 80 | ≥ 80 | 30 to 50 | ≥ 80 |
|  | CO[C@@]1(C)C2=CC=C3[C@@](C)(CC[C@@]4(C)[C@@H]5C[C@](C)(C(=O)O)CC[C@]5(C)CC[C@]34C)C2=CC(O)C1O (stereo partly drawn) [Compound A29, (2R,4aS,6aS,9S,12bR,14aS,14bR)-10,11-dihydroxy-9-methoxy-2,4a,6a,9,12b,14a-hexamethyl-1,2,3,4,4a,5,6,6a,9,10,11,12b,13,14,14a,14b-hexadecahydropicene-2-carboxylic acid] | 50 to 80 | < 30 | < 30 | < 30 | < 30 | < 30 | < 30 |
|  | COC(=O)[C@]1(C)CC[C@]2(C)CC[C@]3(C)C4=CC=C5C(=CC(=O)C(=O)C5(C)O)[C@]4(C)CC[C@@]3(C)[C@@H]2C1 (stereo partly drawn) [Compound A32, methyl (2R,4aS,6aS,12bR,14aS,14bR)-9-hydroxy-2,4a,6a,9,12b,14a-hexamethyl-10,11-dioxo-1,2,3,4,4a,5,6,6a,9,10,11,12b,13,14,14a,14b-hexadecahydropicene-2-carboxylate] | ≥ 80 | ≥ 80 | 50 to 80 | ≥ 80 | ≥ 80 | ≥ 80 | ≥ 80 |
|  | COC(=O)[C@]1(C)CC[C@]2(C)CC[C@]3(C)C4=CC=C5C(=CC(=O)C(=O)[C@@]5(C)OC)[C@]4(C)CC[C@@]3(C)[C@@H]2C1 [Compound A5, methyl (2R,4aS,6aS,9S,12bR,14aS,14bR)-9-methoxy-2,4a,6a,9,12b,14a-hexamethyl-10,11-dioxo-1,2,3,4,4a,5,6,6a,9,10,11,12b,13,14,14a,14b-hexadecahydropicene-2-carboxylate] | ≥ 80 | 50 to 80 | 50 to 80 | ≥ 80 | ≥ 80 | 30 to 50 | ≥ 80 |
|  | CO[C@@]1(C)C2CCC3[C@@](C)(CC[C@@]4(C)[C@@H]5C[C@](C)(C(=O)O)CC[C@]5(C)CC[C@]34C)C2=CC(=O)[C@@H]1O (stereo partly drawn) [Compound A21, (2R,4aS,6aR,9S,10R,12bR,14aS,14bR)-10-hydroxy-9-methoxy-2,4a,6a,9,12b,14a-hexamethyl-11-oxo-1,2,3,4,4a,5,6,6a,6b,7,8,8a,9,10,11,12b,13,14,14a,14b-icosahydropicene-2-carboxylic acid] | < 30 | < 30 | < 30 | < 30 | < 30 | < 30 | < 30 |
|  | CO[C@]1(C)C(=O)C(=O)C=C2C1=CC=C1[C@@]2(C)CC[C@@]2(C)[C@@H]3C[C@](C)(CO)CC[C@]3(C)CC[C@]12C [Compound A14, (4S,6bS,8aS,11R,12aR,12bS,14aR)-11-(hydroxymethyl)-4-methoxy-4,6b,8a,11,12b,14a-hexamethyl-4,6b,7,8,8a,9,10,11,12,12a,12b,13,14,14a-tetradecahydropicene-2,3-dione] | 30 to 50 | < 30 | < 30 | < 30 | < 30 | < 30 | < 30 |
|  | CCO[C@]1(C)C(=O)C(=O)C=C2C1=CC=C1[C@@]2(C)CC[C@@]2(C)[C@@H]3C[C@](C)(C(=O)O)CC[C@]3(C)CC[C@]12C [Compound A28, (2R,4aS,6aS,9S,12bR,14aS,14bR)-9-ethoxy-2,4a,6a,9,12b,14a-hexamethyl-10,11-dioxo-1,2,3,4,4a,5,6,6a,9,10,11,12b,13,14,14a,14b-hexadecahydropicene-2-carboxylic acid] | ≥ 80 | 30 to 50 | 30 to 50 | 50 to 80 | 50 to 80 | 30 to 50 | 50 to 80 |
|  | CCCC(=O)O[C@H]1C(=O)C=C2C(=CC=C3[C@@]2(C)CC[C@@]2(C)[C@@H]4C[C@](C)(C(=O)NC)CC[C@]4(C)CC[C@]32C)[C@]1(C)OC [Compound A23, (3R,4S,6bS,8aS,11R,12aR,12bS,14aR)-4-methoxy-4,6b,8a,11,12b,14a-hexamethyl-11-(methylcarbamoyl)-2-oxo-2,3,4,6b,7,8,8a,9,10,11,12,12a,12b,13,14,14a-hexadecahydropicen-3-yl butyrate] | ≥ 80 | ≥ 80 | 50 to 80 | ≥ 80 | ≥ 80 | ≥ 80 | ≥ 80 |
|  | CO[C@@]1(C)C2=CC=C3[C@@](C)(CC[C@@]4(C)[C@@H]5C[C@](C)(CO)CC[C@]5(C)CC[C@]34C)C2=CC(=O)[C@@H]1O [Compound A18, (3R,4S,6bS,8aS,11R,12aR,12bS,14aR)-3-hydroxy-11-(hydroxymethyl)-4-methoxy-4,6b,8a,11,12b,14a-hexamethyl-2,3,4,6b,7,8,8a,9,10,11,12,12a,12b,13,14,14a-hexadecahydropicen-2-one] | ≥ 80 | ≥ 80 | 50 to 80 | ≥ 80 | ≥ 80 | 30 to 50 | ≥ 80 |
